How the values were obtained:
[1] = biological target: T1, cyclic AMP phosphodiesterase (Homo sapiens, UniProt Q14432); test: Cyclic AMP phosphodiesterase inhibitory activity, enzyme from human platelets (Pharmacological Test IV); assay type: biochemical, man; conditions: 0.4 μM cyclic AMP substrate, 30° C., 20 minutes, human platelet enzyme; read-out: IC50 (50% phosphodiesterase inhibition concentration)
T1 construct: the resulting supernatant liquid was used as a crude enzyme solution; from tissue; host or cells: human platelets (from platelet-rich plasma)
T1 sequence (Q14432 whole entry): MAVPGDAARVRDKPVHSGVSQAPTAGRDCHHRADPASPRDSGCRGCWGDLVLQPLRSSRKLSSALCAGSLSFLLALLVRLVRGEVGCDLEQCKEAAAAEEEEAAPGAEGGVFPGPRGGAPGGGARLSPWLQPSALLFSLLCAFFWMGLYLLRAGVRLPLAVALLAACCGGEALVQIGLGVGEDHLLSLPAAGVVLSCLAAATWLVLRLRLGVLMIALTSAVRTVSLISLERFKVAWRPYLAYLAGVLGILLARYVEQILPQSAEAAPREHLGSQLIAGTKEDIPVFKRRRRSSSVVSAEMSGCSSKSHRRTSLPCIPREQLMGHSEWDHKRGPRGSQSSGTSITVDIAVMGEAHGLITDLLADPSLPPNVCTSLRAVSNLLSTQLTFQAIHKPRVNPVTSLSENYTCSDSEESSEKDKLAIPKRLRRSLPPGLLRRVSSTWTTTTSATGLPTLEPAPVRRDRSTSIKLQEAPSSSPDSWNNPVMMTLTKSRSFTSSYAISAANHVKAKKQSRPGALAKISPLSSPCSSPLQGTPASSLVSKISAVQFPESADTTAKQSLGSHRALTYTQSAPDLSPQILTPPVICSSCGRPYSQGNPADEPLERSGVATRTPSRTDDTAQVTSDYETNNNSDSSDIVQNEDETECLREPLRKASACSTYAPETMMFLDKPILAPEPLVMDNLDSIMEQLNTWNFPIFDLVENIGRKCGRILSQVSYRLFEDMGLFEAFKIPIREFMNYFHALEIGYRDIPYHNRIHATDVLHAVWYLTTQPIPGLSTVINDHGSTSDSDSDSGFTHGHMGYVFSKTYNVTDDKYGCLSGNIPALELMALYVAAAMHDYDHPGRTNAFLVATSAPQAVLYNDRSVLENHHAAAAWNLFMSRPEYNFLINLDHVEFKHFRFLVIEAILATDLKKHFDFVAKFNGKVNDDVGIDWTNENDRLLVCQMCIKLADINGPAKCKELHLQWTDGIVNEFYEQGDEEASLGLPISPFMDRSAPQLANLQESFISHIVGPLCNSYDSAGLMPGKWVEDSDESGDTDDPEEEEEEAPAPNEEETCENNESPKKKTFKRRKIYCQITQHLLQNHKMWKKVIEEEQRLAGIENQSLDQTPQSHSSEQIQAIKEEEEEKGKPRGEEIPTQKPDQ

platelets [2] = test: Inhibition of collagen-induced platelets adhesion, washed platelets (Pharmacological Test III); assay type: cell-based, man; conditions: Platelet, 50 μg/ml collagen, human washed platelets, read-out: Inhibition (%) of collagen-induced platelets adherence
Method: A blood was collected from a healthy person with normal platelets function by addition of 0.1% disodium ethylenediaminetetraacetate (EDTA.4Na) and immediately subjected to separation of a platelet rich plasma (PRP). The PRP was washed twice with a Tyrode's buffer solution (50mM TRIS, 0.1% EDTA, Ca (-), Mg (-), 0.14% BSA added, pH=7.4), and suspended in the buffer solution so that the number of platelets in the resulting suspension became 300, 000/ml, to obtain a platelets suspension (EDTA-WP). 4 mg of Type I manufactured by Sigma Co., derived from a bovine skin was dissolved in 0.25 ml of acetic acid (83.5 mM); 8 ml of distilled water was added thereto; an ultrasonic wave was applied to the mixture at 4° C. for 2 minutes; 5 ml of the supernatant liquid was separated as a collagen solution. Each test compound was dissolved in dimethylformamide (DMF) so as to give a concentration of at least […] when possible, to prepare a test compound solution. The change in turbidity of platelets suspension was recorded as a change in transmitted light emitted from a glass cell containing the suspension, using a platelets aggregation tracer manufactured by Nikoh Bioscience K.K., generally used in the test of platelets aggregation function, whereby the adherence of platelets was measured. Incidentally, in recoridng the change in transmitted light, the sensitivity of the recorder was 5 times as high as that used generally. 200 μl of the EDTA-WP was placed in a glass cell exclusively used for the above platelets aggregation tester. Further, 1 μl of the test compound solution was added. The mixture was incubated at room temperature for 5 minutes. Then, the cell was set in the platelets aggregation tracer and was allowed to stand for 1 minute until the temperature became 37° C. Thereafter, about 20 μl (50 μg/ml) of the collagen solution was added, and the adherence of platelets were measured.
The inhibitions (%) of collagen-induced platelets adhesion by each test compound at various concentrations were calculated using the following formula.
Inhibition (%)=[1-(platelets adherence when test compound added)/
(platelets adherence when no test compound added)]×100

platelets [3] = test: Platelets aggregation inhibitory activity (method of Born et al.), ADP-induced, human PRP (Pharmacological Test I); assay type: cell-based, man; conditions: 7.5 μM ADP, 37° C., read-out: IC50 ADP (50% platelets aggregation inhibition)
Method: (§1) The platelets aggregation inhibitory activity of each test compound was measured by the method of Born et al. [J. Physiol., London, 162, 67 (1962)], using Platelets Aggregation Tracer manufactured by Nikoh Bioscience Co., Ltd.
(§2) 9 volumes of a blood collected from person was mixed with 1 volume of a 3.8% aqueous sodium citrate solution. Part of the mixture was subjected to centrifugation at 1,100 rpm for 10 minutes to obtain a platelet rich plasma (PRP). The remainder of the mixture was also subjected to centrifugation at 3,000 rpm for 10 minutes to obtain a platelet poor plasma (PPP).
(§3) The number of platelets in the PRP was measured using Coulter Counter manufactured by Coulter Electronics Inc. Then, the PRP was diluted with the PPP so that the number of platelets in the dilution became 300,000, whereby a PRP solution was prepared.
(§4) 200 μl of this PRP solution and 2 ml of a solution containing a test compound at a given concentration were placed in an aggregation measurement cell and heated at 37° C. for 1 minute. Thereto was added 20 μl of adenosine diphosphate (ADP manufactured by Sigma Co.) or a collagen suspension (Collagen Reagent manufactured by Horm, Hormon-Chemie, Gmbh) to induce aggregation of platelets. The resulting mixture in the cell was measured for change of transmittance, after which a platelets aggregation curve was prepared. Incidentaly, the concentration of ADP or collagen was selected so that the final Concentration became 7.5 μM or 20 μg/ml.
(§5) Using the platelets aggregation curve, there was calculated a maximum aggregation rate (MAR) of platelets using the followoing formula: […]
(§6) wherein a represents a transmittance of the PRP obtained in the same manner; c represents a transmittance of the PPP obtained in the same manner; and b represents a transmittance at the maximum change, of the PRP solution containng the test compound and the aggregation inducer.
(§7) A MAR was also calculated as above, for the control containing no test compound.
(§8) Using the above two MARs, there were calculated platelets aggregation inhibitions (%) of each test compound at various concentrations using the following formula.
(§9) Inhibition=[1-(MAR of PRP solution containing test compound)/(MAR of PRP
(§10) solution containing no test compound)]×100
(§11) Using the above obtained platelets aggregation inhibitions (%) of each test compound at various concentrations, there was calculated a concentration (IC50) of each test compound for 50% platelets aggregation inhibition.

platelets [4] = test: Platelets aggregation inhibitory activity (method of Born et al.), collagen-induced, human PRP (Pharmacological Test I); assay type: cell-based, man; conditions: Homo sapiens, Platelet, 20 μg/ml collagen, 37° C., read-out: IC50 Collagen (50% platelets aggregation inhibition)
Method: as §1, §2, §3, §4, §5, §6, §7, §8, §9, §10, §11

mongrel dogs = conditions: dog, in vivo, 300 mg/kg
Method: The heart rate-increasing activity and blood pressure hypotensive activity of each test compound were measured by the following method, using mongrel dogs each weighing 10-20 kg. That is, said dogs were anesthesized by intravenous injection of pentobarbital sodium, then fixed at the back, and tested under artificial respiration. The blood pressures of the dogs were measured by a blood pressure measuring transducer (P23×L manufactured by Gould Statham Instruments, Inc.) via cannula inserted into the femoral artery. The heart rates of the dogs were measured using the pulse wave of the blood pressure of each dog, via a tachometer. The signals of these testng apparatuses were recorded on a thermal pen-type recorder (Recti-Horize 8K manufactured by Nippon Denki-San-ei Sha).
Some of the compounds obtained in the above Examples were used as test compounds. […] Then, the heart rate of each dog was measured according to the above method and a maximum change in heart rate was calculated.

O=c1ccc2ccc(OCCCCN(CCN3CCC(O)CC3)CC3CCCCCCC3)cc2[nH]1 [Example 134]
IC50 [1]: 0.49 µM
inhibition at 10 µM (platelets [2]): 45%

O=C(O)CN(CCCCOc1ccc2[nH]c(=O)ccc2c1)CC1CCCCCCC1 [Example 64]
IC50 (platelets [3]; Homo sapiens, Platelet): 9 µM
inhibition at 30 µM (platelets [2]): 31%
IC50 (platelets [4]): 10 µM

O=C(NCC1CCCCC1)[C@@H]1C[C@@H](O)CN1CCCCOc1ccc2[nH]c(=O)ccc2c1 [Example 75]
IC50 (platelets [3]; Homo sapiens, Platelet): 9.1 µM
inhibition at 300 µM (platelets [2]; dose 300 μM): 57%
IC50 (platelets [4]): 13 µM

O=c1ccc2cc(OCCCS(=O)(=O)N(CCN3CCC(O)CC3)Cc3ccccc3)ccc2[nH]1 [Example 83]
IC50 (platelets [3]; Homo sapiens, Platelet): 11 µM
Maximum change in heart rate (mongrel dogs): 9 beats/minute
IC50 (platelets [4]): 4.3 µM

O=C(CN(CCCCCOc1ccc2[nH]c(=O)ccc2c1)Cc1ccccc1)N1CCC(O)CC1 [Example 20]
IC50 (platelets [3]; Homo sapiens, Platelet): 2 µM
inhibition at 10 µM (platelets [2]): 49%
IC50 (platelets [4]): 1.2 µM

O=c1ccc2cc(OCCCCN(CCN3CCC(O)CC3)S(=O)(=O)CC3CCCCC3)ccc2[nH]1 [Example 130]
IC50 (platelets [3]; Homo sapiens, Platelet): 14 µM
inhibition at 10 µM (platelets [2]): 43%
IC50 (platelets [4]): 13 µM

O=c1ccc2cc(OCCCCN(Cc3ccccc3)S(=O)(=O)CCn3cncn3)ccc2[nH]1 [Example 121]
inhibition at 30 µM (platelets [2]): 38%

CC(=O)NCCN(CCCCOc1ccc2[nH]c(=O)ccc2c1)CC1CCCCCCC1 [Example 61]
IC50 (platelets [3]; Homo sapiens, Platelet): 4.9 µM
Maximum change in heart rate (mongrel dogs): 17 beats/minute
inhibition at 30 µM (platelets [2]): 35%
IC50 (platelets [4]): 6.3 µM

CCN(CC)CCN(CCCCOc1ccc2[nH]c(=O)ccc2c1)CC1CCCCCC1 [Example 62]
IC50 (platelets [3]; Homo sapiens, Platelet): 18 µM
Maximum change in heart rate (mongrel dogs): 2 beats/minute
inhibition at 100 µM (platelets [2]; dose 100 μM): 54%
IC50 (platelets [4]): 17 µM

CN(C(=S)CCCOc1ccc2[nH]c(=O)ccc2c1)C1CCCCC1 [Example 143]
IC50 [1]: 1.44 µM
IC50 (platelets [3]): 3.8 µM
IC50 (platelets [4]): 2.3 µM

O=c1ccc2cc(OCCCS(=O)(=O)N(CCN3CCC(O)CC3)C3CCCCC3)ccc2[nH]1 [Example 86]
IC50 (platelets [3]; Homo sapiens, Platelet): 8 µM
inhibition at 10 µM (platelets [2]): 47%
IC50 (platelets [4]): 12 µM

O=C(c1ccccc1)N(CCCCOc1ccc2[nH]c(=O)ccc2c1)CCN1CCC(O)CC1 [Example 42]
IC50 (platelets [3]; Homo sapiens, Platelet): 20 µM
IC50 (platelets [4]): 13 µM

CC(=O)NCCN(CC1CCCCCCC1)S(=O)(=O)CCCCOc1ccc2[nH]c(=O)ccc2c1 [Example 112]
IC50 (platelets [3]; Homo sapiens, Platelet): 0.83 µM
IC50 (platelets [4]): 0.69 µM

O=c1ccc2cc(OCCCCN(Cc3ccccc3)S(=O)(=O)CCCN3CCC[C@H]3CO)ccc2[nH]1 [Example 126]
IC50 (platelets [3]; Homo sapiens, Platelet): 10 µM
IC50 (platelets [4]): 15 µM

O=C(CN(CCCCOc1ccc2[nH]c(=O)ccc2c1)CC1CCCCCCC1)N1CCC(O)CC1 [Example 19]
IC50 (platelets [3]; Homo sapiens, Platelet): 6.1 µM
Maximum change in heart rate (mongrel dogs): 24 beats/minute
IC50 (platelets [4]): 5.3 µM

Cc1ccc(CN(CCN2CCC(O)CC2)S(=O)(=O)CCCCOc2ccc3[nH]c(=O)ccc3c2)cc1 [Example 94]
IC50 (platelets [3]; Homo sapiens, Platelet): 1.4 µM
IC50 (platelets [4]): 2.3 µM
